Reference: patent EP0120359A1, “Tetrahydrothiophenone derivative active in respiratory system affections” (YASON S.r.l, priority 1983, dated 1984)
Like-named read-outs stand apart in the source and are kept apart here.

Tests used:
[1] = test system: Sprague-Dawley rats; experiment: Bronchosecretogogue activity, Mawatari test; assay type: in vivo; details: rat
From the text: The bronchosecretogogue activity of YS-869 was evalued by the test of Mawatari in Sprague-Dawley rats (Mawatari H. "Experimental Studies on the expectorant action of several drugs" - Kagoshima Daiga ken Igaken Zasshi. 27, 561, 1976), in comparison with known drugs.
This method consists in determinating the amount of […] eliminated with the fluid in the respiratory tract.

[2] = test system: rat paw; experiment: Antiinflammatory activity, carrageenin oedema in rat paw; assay type: in vivo; details: for Paw volume 2 h / Paw volume 4 h / Paw volume 6 h / Paw volume 8 h / Paw volume 24 h / Paw volume Basal: mean ± S.E.; for AREA % M±E.S.: area of the paw volume curve; for AREA Inhibition versus control: oedema inhibiting activity
Method: The antiinflammatory activity of YS-869 in comparison with acetylsalicylic acid was evaluated by the test of oedema induced by carrageening injection in rat paw (Winter, Rissly, Ness.; Proc. Soc. Exp. Biol. Med., Ill, 544-47 - 1962).

[3] = test system: rats; assay type: in vivo; details: 200 mg/kg p.o.
Method: The gastro-injuring activity was determined by administering rats with equimolecular dosages of YS-869 and acetylsalicylic acid (252 mg/kg and 200 mg/kg respectively).

[4] = test system: rabbit; experiment: Antitussive activity, citric acid induced cough; assay type: in vivo
From the text: The antitussive activity of YS-869 was evalued by the citric acid test in the rabbit (Boura et al., Prog. Brit. Pharmac. Soc. Communications, April 1970), in comparison with codeine.
Such method consists in counting the coughs stro kes caused in the animal by the nebulization of a citric acid solution.

[5] = Solubility in organic solvents; details: common organic solvents

## Nc1c(Br)cc(Br)cc1CN[C@H]1CC[C@H](O)CC1 [AMBROXOL, Ambroxol]
[1]; 50 mg/kg i.p.
  Fl Na: 0.36 ± 0.037 µg/mL
  Fl Na % increase versus contr.: 28.6%

## CC(=O)Oc1ccccc1C(=O)O [Acetyl-salicy-lic acid, acetylsalicylic acid]
[2]; 200 mg/kg p.o.
  Paw volume 2 h: 43.5 ±1.5 ml/10
  Paw volume 4 h: 49.3 ±2.0 ml/10
  Paw volume 6 h: 51.4 ±1.7 ml/10
  Paw volume 8 h: 51.5 ±2.0 ml/10
  Paw volume 24 h: 42.8 ±1.7 ml/10
  AREA % M±E.S.: 151.38 ±13.1%
  Paw volume Basal: 36.1 ±1.1 ml/10
  AREA Inhibition versus control: 26.94%
[3]
  ULCERS (gastric ulcers average size): 27.7±6.37 mm
[3]; listed as acetylsalicylic acid
  ULCERS (gastric ulcers average size): 27.7 mm

## COc1ccc2c3c1O[C@H]1[C@@H](O)C=C[C@H]4[C@@H](C2)N(C)CC[C@@]341 [CODEINE, codeine]
[4]; 25 mg/kg i.p.
  % inhibition versus control: 70.4%

## N[C@@H](CSCC(=O)O)C(=O)O [S-CARBOXY-METHYL-CY-STEINE, S-carboxymethyl-cysteine]
[1]; 500 mg/kg i.p.
  Fl Na: 0.41 ± 0.036 µg/mL
  Fl Na % increase versus contr.: 46.4%

## O=C(NC1CCSC1=O)c1cccs1 (stereo not drawn) [YS-869, N-(2-thenoyl)-N-(2-keto-2,3,4,5-tetrahydro-thiophene-3-yl)amine]
[5]
  solubility: soluble in common organic solvents
[2]; 252 mg/kg p.o.
  Paw volume 2 h: 48.2 ±1.2 ml/10
  Paw volume 4 h: 54.1 ±2.3 ml/10
  Paw volume 6 h: 52.1 ±2.9 ml/10
  Paw volume 8 h: 51.4 ±2.5 ml/10
  Paw volume 24 h: 41 ±1.4 ml/10
  AREA % M±E.S.: 165.21 ±13.1%
  Paw volume Basal: 36.8 ±1.0 ml/10
  AREA Inhibition versus control: 20.26%
[1]; 500 mg/kg i.p.
  Fl Na: 0.42 ± 0.0450 µg/mL
[1]; 500 mg/kg i.p., 500 mg/kg
  Fl Na % increase versus contr.: 50%
[4]; 100 mg/kg i.p.
  % inhibition versus control: 21.5%
